Earlier results in patent US5326898A, “Substituted phenylethenyl compounds having retinoid-like biological activity” (Allergan, Inc., priority 1992, dated 1994).

Test system: ornithine decarboxylase (ODC)
Conditions: qualitative; background statement on retinoic acid

For `CC1=C(/C=C/C(C)=C/C=C/C(C)=C/C(=O)O)C(C)(C)CCC1` [Retinoic acid], which “inhibition of induction of ODC activity by TPA” value is on record?
The value was “inhibits”.
